# Target: T1, wtKIT (Homo sapiens, UniProt P10721)
# T1 construct: 1888289AM in the reaction mixtures
# Test: HTRF biochemical assay, wtKIT (phosphorylation of a peptide substrate)
# Settings: Table 4
# Outline: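 wtKIT (5.0 nM) phosphorylating 1 µM FAM-labelled peptide with 400 µM ATP and 10 mM MnCl2 in 100 mM HEPES pH 7.5, 1% DMSO, 3 h at 25 °C. EDTA quench; phosphopeptide detected with anti-phosphotyrosine antibody by HTRF. Enzyme titrated for 10-20% substrate conversion.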
# T1 sequence (P10721 26-976): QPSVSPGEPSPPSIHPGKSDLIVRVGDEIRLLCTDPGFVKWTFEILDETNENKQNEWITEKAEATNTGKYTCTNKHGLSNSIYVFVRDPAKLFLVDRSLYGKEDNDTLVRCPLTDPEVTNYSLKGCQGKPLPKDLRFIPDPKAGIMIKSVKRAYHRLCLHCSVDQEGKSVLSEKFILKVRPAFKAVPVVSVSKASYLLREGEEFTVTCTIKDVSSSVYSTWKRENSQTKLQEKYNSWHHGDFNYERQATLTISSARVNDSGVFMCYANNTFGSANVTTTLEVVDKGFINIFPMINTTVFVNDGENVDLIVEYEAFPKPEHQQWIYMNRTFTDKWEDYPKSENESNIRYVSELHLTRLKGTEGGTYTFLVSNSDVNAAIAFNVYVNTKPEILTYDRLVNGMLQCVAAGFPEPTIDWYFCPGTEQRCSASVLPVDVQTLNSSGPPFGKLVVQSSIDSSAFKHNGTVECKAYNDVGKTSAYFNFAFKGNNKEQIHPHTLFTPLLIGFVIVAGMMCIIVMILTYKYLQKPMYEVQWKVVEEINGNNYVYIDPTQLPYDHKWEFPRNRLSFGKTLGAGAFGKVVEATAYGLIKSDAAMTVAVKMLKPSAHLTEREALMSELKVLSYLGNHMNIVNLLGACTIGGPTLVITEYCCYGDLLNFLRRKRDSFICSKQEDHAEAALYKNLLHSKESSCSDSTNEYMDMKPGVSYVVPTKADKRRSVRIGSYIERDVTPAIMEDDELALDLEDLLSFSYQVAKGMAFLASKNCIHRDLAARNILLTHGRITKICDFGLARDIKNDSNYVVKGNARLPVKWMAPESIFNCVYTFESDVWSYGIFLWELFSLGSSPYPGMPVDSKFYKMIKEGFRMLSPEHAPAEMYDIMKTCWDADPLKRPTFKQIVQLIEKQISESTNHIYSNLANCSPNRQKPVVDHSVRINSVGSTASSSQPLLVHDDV
row,IC50 [nM],SMILES
1,≤ 50,Cc1ccc(-c2ncon2)cc1NC(=O)c1cnn2cc(-c3ccn(C)n3)ccc12 [Compound I-729]
2,≤ 50,Cc1ccc(-c2noc(C(C)O)n2)cc1NC(=O)c1cnn2cc(-c3ccn(C)n3)ccc12 (stereo not shown) [Compound I-730]
3,50 to 500,COCc1ccn2c(C(=O)Nc3cc(-c4noc(-c5cccnc5)n4)ccc3C)cnc2c1 [Compound I-732]
4,≤ 50,CCc1nc(-c2ccc(C)c(NC(=O)c3cnc4cc(COC)ccn34)c2)no1 [Compound I-734]
5,500 to 5000,COCc1ccn2c(C(=O)Nc3cc(-c4noc(C(C)O)n4)ccc3C)cnc2c1 (stereo not shown) [Compound I-735]
6,≤ 50,Cc1ccn2c(C(=O)Nc3cc(-c4noc(-c5ccccc5)n4)ccc3C)cnc2c1 [Compound I-736]
7,≤ 50,CCc1nc(-c2ccc(C)c(NC(=O)c3cnc4cc(OC)ccn34)c2)no1 [Compound I-737]
8,50 to 500,Cc1ccc(-c2noc(-c3cccnc3)n2)cc1NC(=O)c1cnc2ccccn12 [Compound I-738]
9,≤ 50,CCc1nc(-c2ccc(C)c(NC(=O)c3cnc4cc(F)ccn34)c2)no1 [Compound I-739]
10,500 to 5000,Cc1ccc(-c2noc(C(C)O)n2)cc1NC(=O)c1cnc2cc(F)ccn12 (stereo not shown) [Compound I-741]
11,50 to 500,COc1ccn2c(C(=O)Nc3cc(-c4noc(C(C)O)n4)ccc3C)cnc2c1 (stereo not shown) [Compound I-742]
12,500 to 5000,COc1ccn2c(C(=O)Nc3cc(-c4noc(-c5ccccc5)n4)ccc3C)cnc2c1 [Compound I-743]
13,500 to 5000,Cc1ccc(-c2ncon2)cc1NC(=O)c1cnc2cc(F)ccn12 [Compound I-744]
14,≤ 50,COc1ccn2c(C(=O)Nc3cc(-c4noc(-c5cccnc5)n4)ccc3C)cnc2c1 [Compound I-745]
15,500 to 5000,Cc1ccc(-c2noc(C3CC(N)C3)n2)cc1NC(=O)c1cnc2cc(Cl)ccn12 (stereo not shown) [Compound I-746]
16,50 to 500,Cc1ccc(-c2noc(C3CC(NC(=O)OC(C)(C)C)C3)n2)cc1NC(=O)c1cnc2cc(Cl)ccn12 (stereo not shown) [Compound I-747]
17,≤ 50,"Cc1ccn2c(C(=O)Nc3cc(-c4noc(CCC(C)(O)C(F)(F)F)n4)ccc3C)cnc2c1 (stereo not shown) [Compound I-752, 7-methyl-N-(2-methyl-5-(5-(4,4,4-trifluoro-3-hydroxy-3-methylbutyl)-1,2,4-oxadiazol-3-yl)phenyl)imidazo[1,2-a]pyridine-3-carboxamide]"
18,≤ 50,"Cc1ccc(-c2noc(CC3COC3)n2)cc1NC(=O)c1cnc2cc(Cl)ccn12 [Compound I-753, 7-Chloro-N-[2-methyl-5-[5-(oxetan-3-ylmethyl)-1,2,4-oxadiazol-3-yl]phenyl]imidazo[1,2-a]pyridine-3-carboxamide]"
19,≤ 50,CCc1nc(-c2ccc(C)c(NC(=O)c3cnc4cc(COCCO)ccn34)c2)no1 [Compound I-754]

# Test system: not listed separately
# Test: Kinetic solubility assay
# Type: physicochemical
# Settings: kinetic solubility, 50 mM PB (pH 7.4), shaken 24 hours at RT
# Experimental: 10 μL of 10 mM in DMSO of test article and control compounds was added into lower chambers of whatman miniuniprep vials, respectively. 490 μL of 50 mM PB (pH 7.4) was then added into lower chambers of the whatman miniuniprep vials, respectively. […] Miniuniprep vials were shaken for 24 hours at RT at the speed of 800 rpm, centrifuged 20 minutes (eg. 4000 rpm) and the filtrates were analyzed by UPLC-UV/HPLC-UV system to calculate the concentration with standard curve.
# Filter Membrane: Miniuniprep (PTFE Filter Media with Polypropylene Housing) Cat. No. UN203NPUORG, GE Halthcare Whatman.
row,SMILES,Solubility (μM)
1,Cc1ccc(-c2noc(C3CC3F)n2)cc1NC(=O)c1cnc2cc(CNC(=O)C3CCCO3)ccn12 (mixture of isomers) [I-33],*** (a solubility greater than 2 μM and less than or equal to 10 μM)
2,"Cc1ccc(-c2noc(CC(O)C(F)F)n2)cc1NC(=O)c1cnc2cc(OC(F)(F)F)ccn12 (single isomer, unassigned) [I-13]",**** (a solubility less than or equal to 2 μM)
3,"COc1ccn2c(C(=O)Nc3cccc(-c4noc(CC5CC5(F)F)n4)c3F)cnc2c1 (single isomer, unassigned) [I-54]",**** (a solubility less than or equal to 2 μM)
4,"O=C(Nc1cc(-c2noc(CC(O)C(F)F)n2)ccc1Cl)c1cnc2ccccn12 (single isomer, unassigned) [I-61]",**** (a solubility less than or equal to 2 μM)
5,"O=C(Nc1cc(-c2noc(CC(O)C(F)F)n2)ccc1Cl)c1cnc2ccccn12 (single isomer, unassigned) [I-62]",**** (a solubility less than or equal to 2 μM)
6,"COc1ccc2ncc(C(=O)Nc3cc(-c4noc(CC(O)C(F)F)n4)ccc3C)n2c1 (single isomer, unassigned) [I-65]",**** (a solubility less than or equal to 2 μM)
7,"COc1ccc2ncc(C(=O)Nc3cc(-c4noc(CC(O)C(F)F)n4)ccc3C)n2c1 (single isomer, unassigned) [I-66]",**** (a solubility less than or equal to 2 μM)
8,"Cc1ccc(-c2noc(CC(O)C(F)(F)F)n2)cc1NC(=O)c1cnc2ccccn12 (single isomer, unassigned) [I-67]",**** (a solubility less than or equal to 2 μM)
9,"Cc1ccc(-c2noc(CC(O)C(F)(F)F)n2)cc1NC(=O)c1cnc2ccccn12 (single isomer, unassigned) [I-68]",**** (a solubility less than or equal to 2 μM)
10,"Cc1ccc(-c2noc(CC(O)C(F)F)n2)cc1NC(=O)c1cnc2cc(C(F)F)ccn12 (single isomer, unassigned) [I-70]",**** (a solubility less than or equal to 2 μM)
11,Cc1noc(-c2ccc3ncc(C(=O)Nc4cc(-c5noc([C@H]6C[C@@H]6F)n5)ccc4C)n3c2)n1 [I-2],**** (a solubility less than or equal to 2 μM)
12,Cc1ccc(-c2noc([C@H]3C[C@@H]3F)n2)cc1NC(=O)c1cnc2cc(C(=O)N3CCCC3)ccn12 [I-3],*** (a solubility greater than 2 μM and less than or equal to 10 μM)
13,Cc1ccc(-c2noc([C@H]3C[C@@H]3F)n2)cc1NC(=O)c1cnc2ccc(N3CCCC3=O)cn12 [I-4],**** (a solubility less than or equal to 2 μM)
14,Cc1ccc(-c2noc([C@H]3C[C@@H]3F)n2)cc1NC(=O)c1cnc2ccc(CNS(=O)(=O)C3CC3)cn12 [I-5],**** (a solubility less than or equal to 2 μM)
15,Cc1ccc(-c2noc([C@H]3C[C@@H]3F)n2)cc1NC(=O)c1cnc2cc(CNC(=O)CO)ccn12 [I-7],**** (a solubility less than or equal to 2 μM)
16,Cc1ccc(-c2noc([C@H]3C[C@@H]3F)n2)cc1NC(=O)c1cnc2ccc(CNC(=O)CO)cn12 [I-8],**** (a solubility less than or equal to 2 μM)
17,CC(=O)NCc1ccc2ncc(C(=O)Nc3cc(-c4noc([C@H]5C[C@@H]5F)n4)ccc3C)n2c1 [I-9],**** (a solubility less than or equal to 2 μM)
18,Cc1ccc(-c2noc([C@H]3C[C@@H]3F)n2)cc1NC(=O)c1cnc2cc(CNS(=O)(=O)C3CC3)ccn12 [I-10],**** (a solubility less than or equal to 2 μM)

row,SMILES,Solubility (μM)
1,Cc1ccc(-c2noc([C@H]3C[C@@H]3F)n2)cc1NC(=O)c1cnc2ccc(CS(C)(=O)=O)cn12 [I-12],**** (a solubility less than or equal to 2 μM)
2,Cc1ccc(-c2noc([C@H]3C[C@@H]3F)n2)cc1NC(=O)c1cnc2cc(N3CCCC3=O)ccn12 [I-14],**** (a solubility less than or equal to 2 μM)
3,Cc1ccc(-c2noc([C@H]3C[C@@H]3F)n2)cc1NC(=O)c1cnc2ccc(CC#N)cn12 [I-15],**** (a solubility less than or equal to 2 μM)
4,Cc1ccc(-c2noc([C@H]3C[C@@H]3F)n2)cc1NC(=O)c1cnc2cc(CC#N)ccn12 [I-16],**** (a solubility less than or equal to 2 μM)
5,Cc1ccc(-c2noc([C@H]3C[C@@H]3F)n2)cc1NC(=O)c1cnc2cc(CNS(C)(=O)=O)ccn12 [I-17],**** (a solubility less than or equal to 2 μM)
6,Cc1ccc(-c2noc([C@H]3C[C@@H]3F)n2)cc1NC(=O)c1cnc2ccc(S(C)(=O)=O)cn12 [I-18],**** (a solubility less than or equal to 2 μM)
7,Cc1ccc(-c2noc([C@H]3C[C@@H]3F)n2)cc1NC(=O)c1cnn2cc(OC(F)(F)F)ccc12 [I-19],**** (a solubility less than or equal to 2 μM)
8,Cc1ccc(-c2noc(C3COC3)n2)cc1NC(=O)c1cnn2cc(C(F)F)ccc12 [I-20],**** (a solubility less than or equal to 2 μM)
9,COc1ccc2c(C(=O)Nc3cc(-c4noc([C@H]5C[C@@H]5F)n4)ccc3C)cnn2c1 [I-21],**** (a solubility less than or equal to 2 μM)
10,Cc1ccc(-c2noc(C3COC3)n2)cc1NC(=O)c1cnc2cc(OC(F)(F)F)ccn12 [I-24],**** (a solubility less than or equal to 2 μM)
11,Cc1cn2c(C(=O)Nc3cc(-c4noc([C@H]5C[C@@H]5F)n4)ccc3C)cnc2cc1C#N [I-26],**** (a solubility less than or equal to 2 μM)
12,COc1cc2ncc(C(=O)Nc3cc(-c4noc([C@H]5C[C@@H]5F)n4)ccc3C)n2cc1F [I-27],**** (a solubility less than or equal to 2 μM)
13,Cc1ccc(-c2noc([C@H]3C[C@@H]3F)n2)cc1NC(=O)c1cnc2cc3c(cn12)COC3 [I-28],**** (a solubility less than or equal to 2 μM)
14,COc1cc2ncc(C(=O)Nc3cc(-c4noc([C@H]5C[C@@H]5F)n4)ccc3C)n2cc1C(F)F [I-29],**** (a solubility less than or equal to 2 μM)
15,COC(=O)NCc1ccn2c(C(=O)Nc3cc(-c4noc([C@H]5C[C@@H]5F)n4)ccc3C)cnc2c1 [I-30],**** (a solubility less than or equal to 2 μM)
16,Cc1ccc(-c2noc([C@H]3C[C@@H]3F)n2)cc1NC(=O)c1cnc2cc(CNC(=O)C(C)(C)O)ccn12 [I-31],**** (a solubility less than or equal to 2 μM)
17,CC(=O)NCc1ccn2c(C(=O)Nc3cc(-c4noc([C@H]5C[C@@H]5F)n4)ccc3C)cnc2c1 [I-32],**** (a solubility less than or equal to 2 μM)
18,COc1ccn2c(C(=O)Nc3cc(-c4noc([C@H]5C[C@@H]5F)n4)ccc3C)cnc2c1F [I-34],**** (a solubility less than or equal to 2 μM)

# Reference: patent US20240254119A1 (THIRD HARMONIC BIO, INC., priority 2022, published 2024)
